Assay results from article PMC7315563, “Bioactive fluorenes. Part III: 2,7-dichloro-9H-fluorene-based thiazolidinone and azetidinone analogues as anticancer and antimicrobial against multidrug resistant strains agents” (BMC Chemistry, 2020).
Converted amounts (≈) assume the structure as drawn.

Columns and labels:
Type in all cases: cell-based
[1] = tested on: A549 human lung cancer cells; assay: cell viability assay (MTT); conditions: 24 h; for viability at 1 µg/mL: read-out: Validity (%) for sample concentrations (µg/mL) 1; for viability at 10 µg/mL: read-out: Validity (%) for sample concentrations (µg/mL) 10; for viability at 31.25 µg/mL: read-out: Validity (%) for sample concentrations (µg/mL) 31.25; for viability at 62.5 µg/mL: 62.50 µg/mL, read-out: Validity (%) for sample concentrations (µg/mL) 62.50; for viability at 125 µg/mL: read-out: Validity (%) for sample concentrations (µg/mL) 125; for viability at 250 µg/mL: read-out: Validity (%) for sample concentrations (µg/mL) 250; for viability at 500 µg/mL: read-out: Validity (%) for sample concentrations (µg/mL) 500; for viability at 1000 µg/mL: read-out: Validity (%) for sample concentrations (µg/mL) 1000
[2] = tested on: E. coli; assay: MIC by broth microdilution method (resazurin end point); conditions: Escherichia coli, 24 h at 37 °C
In short: (§1)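 Twofold dilutions of fluorene derivatives (500–7.8 μg/mL) in Mueller–Hinton broth, inoculum from 0.5 McFarland suspension per CLSI 2012. Resazurin added, 1–4 h at 37 °C; MIC is lowest concentration preventing blue-to-pink change.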

[3] = tested on: K. pneumoniae; assay: as above; conditions: Klebsiella pneumoniae, 24 h at 37 °C
In short: as §1

[4] = tested on: Escherichia coli (E. coli), multidrug resistant clinical isolate; assay: agar well diffusion assay; conditions: 24 h, 500 µg/mL of tested compound
In short: (§2)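 Multidrug-resistant clinical isolates swabbed on Mueller–Hinton agar at about 1–5 × 10^5 CFU/mL; 0.5 cm wells received 50 μL compound at 500 μg/mL in 1% DMSO. Incubation 24 h, 37 °C for bacteria and C. albicans, 25 °C for Aspergillus; inhibition zone diameter measured in mm.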

[5] = tested on: Streptococcus pneumoniae (S. pneumoniae), multidrug resistant clinical isolate; assay: agar well diffusion assay; conditions: S. pneumoniae; 500 µg/mL of tested compound; 24 h
In short: as §2

[6] = tested on: methicillin-resistant Staphylococcus aureus (MRSA); assay: agar well diffusion assay; conditions: 500 µg/mL of tested compound, 24 h
In short: as §2

[7] = tested on: P. aeruginosa; assay: MIC by broth microdilution method (resazurin end point); conditions: Pseudomonas aeruginosa, 24 h at 37 °C
In short: as §1

| SMILES | viability at 1 µg/mL [1] [%] | viability at 10 µg/mL [1] [%] | viability at 31.25 µg/mL [1] [%] | viability at 62.5 µg/mL [1] [%] | viability at 125 µg/mL [1] [%] | viability at 250 µg/mL [1] [%] | viability at 500 µg/mL [1] [%] | viability at 1000 µg/mL [1] [%] | IC50 [1] [µg/mL] | MIC [2] [µg/mL] | MIC [3] [µg/mL] | zone of inhibition at 500 µg/mL [4] [mm] | Mean zone of inhibition [5] | Mean zone of inhibition [6] | MIC [7] [µg/mL] |
| --- | --- | --- | --- | --- | --- | --- | --- | --- | --- | --- | --- | --- | --- | --- | --- |
| O=C1C(Cl)C(c2ccc(Cl)cc2)N1c1nc(-c2cc(Cl)cc3c2-c2ccc(Cl)cc2C3)cs1 (centres unmarked) [6c, 3-Chloro-4-(4-chlorophenyl)-1-(4-(2,7-dichloro-9H-fluoren-4-yl)thiazol-2-yl)azetidin-2-one] | 92.4 | 80.7 | 59.8 | 54.2 | 31.3 | 25.1 | 19.7 | 17.7 | 85 (≈ 160 µM) | 62.5 (≈ 117 µM) | 125 (≈ 235 µM) | 15 |  |  |  |
| O=C1C(Cl)C(c2ccc(Br)cc2)N1c1nc(-c2cc(Cl)cc3c2-c2ccc(Cl)cc2C3)cs1 (centres unmarked) [6d, 4-(4-Bromophenyl)-3-chloro-1-(4-(2,7-dichloro-9H-fluoren-4-yl)thiazol-2-yl)azetidin-2-one] | 97.9 | 92.6 | 77.2 | 67.3 | 49 | 24.6 | 20.4 | 19.4 | 117 (≈ 203 µM) |  |  |  | no activity | no activity |  |
| O=C1C(Cl)C(c2cccs2)N1c1nc(-c2cc(Cl)cc3c2-c2ccc(Cl)cc2C3)cs1 (centres unmarked) [6k, 3-Chloro-1-(4-(2,7-dichloro-9H-fluoren-4-yl)thiazol-2-yl)-4-(thiophen-2-yl)azetidin-2-one] | 90.8 | 80.8 | 76 | 70.6 | 55.4 | 39.8 | 28.7 | 23 | 203 (≈ 403 µM) | 31.2 (≈ 62 µM) |  | 14 |  |  | 125 (≈ 248 µM) |
